This experiment deals with GST-Bcl-2 (Homo sapiens (Human), UniProt P10415). In words: Time Resolved-Fluorescence Resonance Energy Transfer (TR-FRET) Bcl-2 binding assay. As to conditions: GST-Bcl-2 1 nM, F-Bak peptide probe 100 nM, Tb-anti-GST antibody 1 nM; Ki by Wang's equation. In short, it runs like this:
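Ki values derived from TR-FRET displacement of F-Bak peptide from GST-Bcl-2, detected with Tb-labelled anti-GST antibody (ex 340, em 520/495 nm). Compound dilution series started at 50 μM (2× starting concentration); room-temperature incubation 3 hours.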
GST-Bcl-2, sequence (P10415 whole entry): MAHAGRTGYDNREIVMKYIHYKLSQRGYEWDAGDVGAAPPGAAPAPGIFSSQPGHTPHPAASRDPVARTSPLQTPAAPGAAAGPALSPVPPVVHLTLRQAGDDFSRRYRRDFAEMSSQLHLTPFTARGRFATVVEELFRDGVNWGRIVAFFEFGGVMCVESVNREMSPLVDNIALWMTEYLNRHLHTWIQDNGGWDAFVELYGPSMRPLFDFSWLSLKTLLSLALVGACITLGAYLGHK
`CC1(C)CCC(CN2CCN(c3ccc(C(=O)NS(=O)(=O)c4ccc(NCC5(N)CCOCC5)c([N+](=O)[O-])c4)c(Oc4cccc(Cl)c4)c3)CC2)=C(c2ccc(Cl)cc2)C1` [Example 109, N-[(4-{[(4-aminotetrahydro-2H-pyran-4-yl)methyl]amino}-3-nitrophenyl)sulfonyl]-2-(3-chlorophenoxy)-4-(4-{[2-(4-chlorophenyl)-4,4-dimethylcyclohex-1-en-1-yl]methyl}piperazin-1-yl)benzamide]: affinity was put at a Ki of 0.237 nM.

On to `CC(c1ccccc1-c1ccc(Cl)cc1)N1CCN(c2ccc(C(=O)NS(=O)(=O)c3ccc(NCC4CCOCC4)c([N+](=O)[O-])c3)c(Oc3ccccc3Cl)c2)CC1` (centres unmarked) [Example 110, 4-{4-[1-(4′-chloro-1,1′-biphenyl-2-yl)ethyl]piperazin-1-yl}-2-(2-chlorophenoxy)-N-({3-nitro-4-[(tetrahydro-2H-pyran-4-ylmethyl)amino]phenyl}sulfonyl)benzamide], for which the Ki (usually the equilibrium dissociation constant of an inhibitor or competing ligand from its target) amounted to 0.039 nM. This Ki lies about 6.1-fold lower than the previous one.

Take `CN1CCC(Nc2ccc(C(=O)NS(=O)(=O)c3ccc(N4CCN(Cc5ccccc5-c5ccc(Cl)cc5)CC4)cc3Oc3cc(Cl)cc(Cl)c3)cc2[N+](=O)[O-])CC1` [Example 111, N-{[4-{4-[(4′-chloro-1,1′-biphenyl-2-yl)methyl]piperazin-1-yl}-2-(3,5-dichlorophenoxy)phenyl]sulfonyl}-4-[(1-methylpiperidin-4-yl)amino]-3-nitrobenzamide]: the Ki worked out at 17.4 nM.

Compound `CN1CCC(Nc2ccc(S(=O)(=O)NC(=O)c3ccc(N4CCN(CC5=C(c6ccc(Cl)cc6)CC(C)(C)CC5)CC4)cc3Oc3cccc(F)c3)cc2[N+](=O)[O-])CC1` [Example 112, 4-(4-{[2-(4-chlorophenyl)-4,4-dimethylcyclohex-1-en-1-yl]methyl}piperazin-1-yl)-2-(3-fluorophenoxy)-N-({4-[(1-methylpiperidin-4-yl)amino]-3-nitrophenyl}sulfonyl)benzamide] displayed a Ki of 0.042 nM. This Ki is about 410-fold lower than that of the compound before.

`CC1(C)CCC(CN2CCN(c3ccc(C(=O)NS(=O)(=O)c4ccc(NC5CCN(C6CCOCC6)CC5)c([N+](=O)[O-])c4)c(Oc4cccc(F)c4)c3)CC2)=C(c2ccc(Cl)cc2)C1` [Example 113, 4-(4-{[2-(4-chlorophenyl)-4,4-dimethylcyclohex-1-en-1-yl]methyl}piperazin-1-yl)-2-(3-fluorophenoxy)-N-({3-nitro-4-[(1-tetrahydro-2H-pyran-4-ylpiperidin-4-yl)amino]phenyl}sulfonyl)benzamide] returned a Ki of 0.032 nM.

With `CC1(C)CCC(CN2CCN(c3ccc(C(=O)NS(=O)(=O)c4ccc(NC5CCN(C6CCOCC6)CC5)c([N+](=O)[O-])c4)c(Oc4ccccc4Cl)c3)CC2)=C(c2ccc(Cl)cc2)C1` [Example 115, 2-(2-chlorophenoxy)-4-(4-{[2-(4-chlorophenyl)-4,4-dimethylcyclohex-1-en-1-yl]methyl}piperazin-1-yl)-N-({3-nitro-4-[(1-tetrahydro-2H-pyran-4-ylpiperidin-4-yl)amino]phenyl}sulfonyl)benzamide], the affinity corresponds to a Ki of 0.042 nM.

In the case of `CC1(C)CCC(CN2CCN(c3ccc(C(=O)NS(=O)(=O)c4ccc(NCCCN5CCOCC5)c([N+](=O)[O-])c4)c(Oc4ccccc4Cl)c3)CC2)=C(c2ccc(Cl)cc2)C1` [Example 116, 2-(2-chlorophenoxy)-4-(4-{[2-(4-chlorophenyl)-4,4-dimethylcyclohex-1-en-1-yl]methyl}piperazin-1-yl)-N-({4-[(3-morpholin-4-ylpropyl)amino]-3-nitrophenyl}sulfonyl)benzamide], the Ki came to 0.123 nM. Compared with the last compound, the Ki is about 2.9-fold higher.

`CC1(C)CCC(CN2CCN(c3ccc(C(=O)NS(=O)(=O)c4ccc(NC5CCN(C6CCCC6)CC5)c([N+](=O)[O-])c4)c(Oc4ccccc4Cl)c3)CC2)=C(c2ccc(Cl)cc2)C1` [Example 117, 2-(2-chlorophenoxy)-4-(4-{[2-(4-chlorophenyl)-4,4-dimethylcyclohex-1-en-1-yl]methyl}piperazin-1-yl)-N-({4-[(1-cyclopentylpiperidin-4-yl)amino]-3-nitrophenyl}sulfonyl)benzamide] gave a Ki of 0.072 nM. Against the preceding compound, the Ki is about 1.7-fold lower.

In turn, `CN1CCC(Nc2ccc(S(=O)(=O)NC(=O)c3ccc(N4CCN(CC5=C(c6ccc(Cl)cc6)CC(C)(C)CC5)CC4)cc3Oc3ccc(F)cc3)cc2[N+](=O)[O-])CC1` [Example 118, 4-(4-{[2-(4-chlorophenyl)-4,4-dimethylcyclohex-1-en-1-yl]methyl}piperazin-1-yl)-2-(4-fluorophenoxy)-N-({4-[(1-methylpiperidin-4-yl)amino]-3-nitrophenyl}sulfonyl)benzamide] returned a Ki of 0.151 nM.

`CC1(C)CCC(CN2CCN(c3ccc(C(=O)NS(=O)(=O)c4ccc(NC5CCN(C6CC6)CC5)c([N+](=O)[O-])c4)c(Oc4cccc(Cl)c4)c3)CC2)=C(c2ccc(Cl)cc2)C1` [Example 119, 2-(3-chlorophenoxy)-4-(4-{[2-(4-chlorophenyl)-4,4-dimethylcyclohex-1-en-1-yl]methyl}piperazin-1-yl)-N-({4-[(1-cyclopropylpiperidin-4-yl)amino]-3-nitrophenyl}sulfonyl)benzamide] returned a Ki of 0.156 nM.

In turn, `CC1(C)CCC(CN2CCN(c3ccc(C(=O)NS(=O)(=O)c4ccc(NCCCN5CCOCC5)c([N+](=O)[O-])c4)c(Oc4ccc(F)cc4Cl)c3)CC2)=C(c2ccc(Cl)cc2)C1` [Example 120, 2-(2-chloro-4-fluorophenoxy)-4-(4-{[2-(4-chlorophenyl)-4,4-dimethylcyclohex-1-en-1-yl]methyl}piperazin-1-yl)-N-({4-[(3-morpholin-4-ylpropyl)amino]-3-nitrophenyl}sulfonyl)benzamide] showed a Ki of 0.214 nM.

The compound `CC1(C)CCC(CN2CCN(c3ccc(C(=O)NS(=O)(=O)c4ccc(NC5CCN(C6CC6)CC5)c([N+](=O)[O-])c4)c(Oc4cccc(F)c4F)c3)CC2)=C(c2ccc(Cl)cc2)C1` [Example 121, 4-(4-{[2-(4-chlorophenyl)-4,4-dimethylcyclohex-1-en-1-yl]methyl}piperazin-1-yl)-N-({4-[(1-cyclopropylpiperidin-4-yl)amino]-3-nitrophenyl}sulfonyl)-2-(2,3-difluorophenoxy)benzamide] came in with a Ki of 0.081 nM.

`CN1CCC(Nc2ccc(S(=O)(=O)NC(=O)c3ccc(N4CCN(CC5=C(c6ccc(Cl)cc6)CC(C)(C)CC5)CC4)cc3Oc3ccccc3F)cc2[N+](=O)[O-])CC1` [Example 122, 4-(4-{[2-(4-chlorophenyl)-4,4-dimethylcyclohex-1-en-1-yl]methyl}piperazin-1-yl)-2-(2-fluorophenoxy)-N-({4-[(1-methylpiperidin-4-yl)amino]-3-nitrophenyl}sulfonyl)benzamide] came in with a Ki of less than 0.001 nM.

With `CC1(C)CCC(CN2CCN(c3ccc(C(=O)NS(=O)(=O)c4ccc(NC5CCN(C6CC6)CC5)c([N+](=O)[O-])c4)c(Oc4ccccc4F)c3)CC2)=C(c2ccc(Cl)cc2)C1` [Example 123, 4-(4-{[2-(4-chlorophenyl)-4,4-dimethylcyclohex-1-en-1-yl]methyl}piperazin-1-yl)-N-({4-[(1-cyclopropylpiperidin-4-yl)amino]-3-nitrophenyl}sulfonyl)-2-(2-fluorophenoxy)benzamide], the Ki worked out at 0.11 nM.

On to `CC1(C)CCC(CN2CCN(c3ccc(C(=O)NS(=O)(=O)c4ccc(NC5CCN(C6CCOCC6)CC5)c([N+](=O)[O-])c4)c(Oc4ccccc4F)c3)CC2)=C(c2ccc(Cl)cc2)C1` [Example 124, 4-(4-{[2-(4-chlorophenyl)-4,4-dimethylcyclohex-1-en-1-yl]methyl}piperazin-1-yl)-2-(2-fluorophenoxy)-N-({3-nitro-4-[(1-tetrahydro-2H-pyran-4-ylpiperidin-4-yl)amino]phenyl}sulfonyl)benzamide], for which the Ki was determined as 0.033 nM.

In turn, `CC1(C)CCC(CN2CCN(c3ccc(C(=O)NS(=O)(=O)c4ccc(NCCCN5CCOCC5)c([N+](=O)[O-])c4)c(Oc4ccccc4F)c3)CC2)=C(c2ccc(Cl)cc2)C1` [Example 125, 4-(4-{[2-(4-chlorophenyl)-4,4-dimethylcyclohex-1-en-1-yl]methyl}piperazin-1-yl)-2-(2-fluorophenoxy)-N-({4-[(3-morpholin-4-ylpropyl)amino]-3-nitrophenyl}sulfonyl)benzamide] showed a Ki of 0.075 nM.

For the compound `CC1(C)CCC(CN2CCN(c3ccc(C(=O)NS(=O)(=O)c4ccc(NCCN5CCOCC5)c([N+](=O)[O-])c4)c(Oc4ccccc4F)c3)CC2)=C(c2ccc(Cl)cc2)C1` [Example 126, 4-(4-{[2-(4-chlorophenyl)-4,4-dimethylcyclohex-1-en-1-yl]methyl}piperazin-1-yl)-2-(2-fluorophenoxy)-N-({4-[(2-morpholin-4-ylethyl)amino]-3-nitrophenyl}sulfonyl)benzamide], the affinity corresponds to a Ki of 0.068 nM.

`CC1(C)CCC(CN2CCN(c3ccc(C(=O)NS(=O)(=O)c4ccc(NC5CCN(C6CCOCC6)CC5)c([N+](=O)[O-])c4)c(Oc4cccc(Cl)c4)c3)CC2)=C(c2ccc(Cl)cc2)C1` [Example 127, 2-(3-chlorophenoxy)-4-(4-{[2-(4-chlorophenyl)-4,4-dimethylcyclohex-1-en-1-yl]methyl}piperazin-1-yl)-N-({3-nitro-4-[(1-tetrahydro-2H-pyran-4-ylpiperidin-4-yl)amino]phenyl}sulfonyl)benzamide]: the affinity, expressed as Ki, was 0.03 nM.

`CC1(C)CCC(CN2CCN(c3ccc(C(=O)NS(=O)(=O)c4ccc(NCCCN5CCOCC5)c([N+](=O)[O-])c4)c(Oc4cccc(Cl)c4)c3)CC2)=C(c2ccc(Cl)cc2)C1` [Example 128, 2-(3-chlorophenoxy)-4-(4-{[2-(4-chlorophenyl)-4,4-dimethylcyclohex-1-en-1-yl]methyl}piperazin-1-yl)-N-({4-[(3-morpholin-4-ylpropyl)amino]-3-nitrophenyl}sulfonyl)benzamide] yielded a Ki of 0.064 nM.

In the case of `CC1(C)CCC(CN2CCN(c3ccc(C(=O)NS(=O)(=O)c4ccc(NC5CCN(C6CCCC6)CC5)c([N+](=O)[O-])c4)c(Oc4cccc(Cl)c4)c3)CC2)=C(c2ccc(Cl)cc2)C1` [Example 130, 2-(3-chlorophenoxy)-4-(4-{[2-(4-chlorophenyl)-4,4-dimethylcyclohex-1-en-1-yl]methyl}piperazin-1-yl)-N-({4-[(1-cyclopentylpiperidin-4-yl)amino]-3-nitrophenyl}sulfonyl)benzamide], affinity was put at a Ki of 0.067 nM.

Values taken from patent US8952157B2, “Apoptosis-inducing agents for the treatment of cancer and immune and autoimmune diseases” (AbbVie Inc., priority 2008, dated 2015).
